Data set [1] relates to ethanol-preferring rats (strain going back to the Finnish AA rat line). Put plainly: Voluntary alcohol consumption of genetic ethanol-preferring rats (free choice of 10% ethanol or water). Type of data set: in vivo. To be noted: for Alcohol consumption, absolute / Food intake / Alcohol preference (proportion of ethanol solution to total amount of drink) / Total amount of drink: n=6; for Food intake / Total amount of drink: not significant. The protocol: Influence of deoxypeganine HCl on the voluntary alcohol consumption of genetic ethanol-preferring rats.
The experimental animals were in each case 6 female rats of a strain which goes back to the Finnish AA rat line. The animals of this inbred strain prefer 10% alcohol as a drinking liquid if pure water is additionally offered to them (free choice).
The animals were kept individually in type 3 Makrolon cages at a room temperature of 23° C. and air changes nine times per hour. Dry feed granules (Altromin 1311; meal to which vitamins, minerals, amino acids and trace elements are added; manufacturer: Altromin
Spezialfutterwerke GmbH, Lage), drinking water and ethanol solution (10% v/v) were available to them in unrestricted amounts only during the dark phase from 20.00 hours to 08.00 hours, namely in special vessels which guarantee loss-free feeding and drinking. The amounts consumed were determined gravimetrically; the amounts of drink automatically and continuously with the aid of twelve weighing cells. The respective proportion of ethanol solution to the total amount of drink in % served as a measure of the alcohol preference: 0% means that only water, no ethanol solution, was drunk, 100% means that exclusively ethanol solution was drunk. The average alcohol preference of the untreated experimental animals was 78% or 83%.
Table: Influence of deoxypeganine HCl on the ingestive behavior of female ethanol-prefering rats (n=6). The values determined during the three-day preliminary period in each case are in round brackets.

For another data set, the system named is cholinesterase. As to conditions: known pharmacological properties; cited from earlier work.
The conditions of data set [2]: in contrast to neostigmine; cited from earlier work.
Setting [3] is: summary of the table, 15 and 30 mg/kg orally.

Consider `Cl.c1ccc2c(c1)CN1CCCC1=N2` [deoxypeganine HCl], for which the “Alcohol consumption, absolute” value in data set [1] (15 mg/kg orally, preliminary period value 6.47 ± 0.43, p<0.01) is 3.17 ± 0.89 g/kg of BW; in data set [1] (30 mg/kg orally, preliminary period value 6.30 ± 0.34, p<0.001) it was 3.71 ± 0.42 g/kg of BW. Moreover, the Food intake in data set [1] (15 mg/kg orally, preliminary period value 55.2 ± 1.3) is 57.7 ± 2.6 ns g/kg of BW; in data set [1] (30 mg/kg orally, preliminary period value 55.7 ± 2.1) it was 44.6 ± 7.6 ns g/kg of BW. Also, the “Alcohol preference (proportion of ethanol solution to total amount of drink)” value in data set [1] (15 mg/kg orally, preliminary period value 82.8 ± 6.4, p<0.01) came to 45.0 ± 12.9 %; in data set [1] (30 mg/kg orally, preliminary period value 77.8 ± 4.3, p<0.001) it was 51.7 ± 6.4 %. The “Total amount of drink” value in data set [1] (15 mg/kg orally, preliminary period value 97.2 ± 2.3) was 89.8 ± 5.6 ns g/kg of BW; in data set [1] (30 mg/kg orally, preliminary period value 100.9 ± 1.9) it was 90.6 ± 6.1 ns g/kg of BW.

Turning to `c1ccc2c(c1)CN1CCCC1=N2` [deoxypeganine, 1,2,3,9-tetrahydropyrrolo[2,1-b]quinazoline], in the data set with cholinesterase, the “Cholinesterase inhibition, mode of action” value is listed as “reversibly acting cholinesterase inhibitors”; the “Degradation of acetylcholine and of dopamine” value is “inhibits not only the degradation of acetylcholine, but also that of dopamine”. In data set [1] (setting [3]), the Desire for alcohol result is “considerably reduced”; the “Food intake and total amount of drink” value is listed as “not significantly changed”. Further, the Blood-brain barrier passage entry in data set [2] is recorded as “crosses the blood-brain barrier”.

Source of the values: patent US6627631B1, “Pharmaceutical composition containing desoxypeganine for the treatment of alcoholism” (priority 1999, dated 2003).
